One assay deals with Mcl-1 protein (Homo sapiens, UniProt Q07820). Briefly: Inhibition of Mcl-1 by the fluorescence polarisation technique. It is filed as binding. Particulars: fluorescence polarisation test; Fluorescein labelled ligand 1 nM, Mcl-1 protein 5 nM, ~2 hours at r.t.; read-out: IC50 (M) Mcl-1 FP. The procedure: The relative binding potency of each compound was determined via Fluorescence Polarisation (FP). The method utilised a Fluorescein labelled ligand (Fluorescein-βAla-Ahx-A-REIGAQLRRMADDLNAQY-OH; mw 2,765) which binds to the Mcl-1 protein (such that Mcl-1 corresponds to the UniProtKB® primary accession number: Q07820) leading to an increased anisotropy measured in milli-polarisation (mP) units using a reader. The addition of a compound which binds competitively to the same site as the ligand will result in a greater proportion of unbound ligand in the system indicated by a decrease in mP units.
An 11 point serial dilution of each compound was prepared in DMSO and 2 μl transferred into flat bottomed, low binding, 384-well plate (final DMSO concentration 5%). 38 μl of buffer (10 mM 4-(2-hydroxyethyl)-1-piperazineethanesulfonic acid [HEPES], 150 mM NaCl, 0.05% Tween 20, pH 7.4), containing the Fluorescein labelled ligand (final concentration 1 nM) and Mcl-1 protein (final concentration 5 nM) was then added.
Assay plates were incubated ˜2 hours at r.t. before FP was measured on a Biomek Synergy2 reader (Ex. 528 nm, Em. 640 nm, Cut off 510 nm) and mP units calculated. The binding of increasing doses of test compound was expressed as a percentage reduction in mP compared to a window established between ‘5% DMSO only’ and ‘100% inhibition’ controls. 11-point dose response curves were plotted with XL-Fit software using a 4-Parameter Logistic Model (Sigmoidal Dose-Response Model) and the inhibitory concentrations that gave a 50% reduction in mP (IC50) were determined.
(In general: Fluorescence polarisation rises when a labelled molecule tumbles more slowly, as on binding a larger partner.)

The test system of a further assay is H929 cells. Nature of the assay: In vitro cytotoxicity (MTT) on H929 multiple myeloma tumour line. The assay is classed as cell-based. The settings on record: Microculture Tetrazolium Assay. As to the method:
The cytotoxicity studies were carried out on the H929 multiple myeloma tumour line.
The cells are distributed onto microplates and exposed to the test compounds for 48 hours.
The cell viability is then quantified by a colorimetric assay, the Microculture Tetrazolium Assay (Cancer Res., 1987, 47, 939-942).

[1] abbreviates: Homo sapiens, NCI-H929, exposed 48 hours.

Mcl-1 protein, sequence (Q07820 whole entry): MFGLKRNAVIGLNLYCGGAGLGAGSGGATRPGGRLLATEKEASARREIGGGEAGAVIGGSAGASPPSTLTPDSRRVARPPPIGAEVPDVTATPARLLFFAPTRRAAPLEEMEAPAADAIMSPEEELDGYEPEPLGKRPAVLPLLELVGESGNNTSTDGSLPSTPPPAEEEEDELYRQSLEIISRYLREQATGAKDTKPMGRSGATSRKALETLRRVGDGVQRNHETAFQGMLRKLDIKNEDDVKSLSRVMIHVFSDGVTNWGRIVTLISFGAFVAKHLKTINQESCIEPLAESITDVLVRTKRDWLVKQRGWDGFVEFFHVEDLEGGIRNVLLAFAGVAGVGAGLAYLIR

For `COCCOCc1ccccc1-c1nccc(COc2ccccc2CC(Oc2ncnc3sc(-c4ccc(F)cc4)c(-c4ccc(OCCN5CCN(C)CC5)c(Cl)c4C)c23)C(=O)O)n1` [Example 9, (2R)-2-{[(5Sa)-5-{3-chloro-2-methyl-4-[2-(4-methylpiperazin-1-yl)ethoxy]phenyl}-6-(4-fluorophenyl)thieno[2,3-d]pyrimidin-4-yl]oxy}-3-{2-[(2-{2-[(2-methoxyethoxy)methyl]phenyl}pyrimidin-4-yl)methoxy]phenyl}propanoic acid], the values for the IC50 at Mcl-1 protein and in the assay with H929 cells (setting [1]) were 8.15e-09 M and 1.4 nM, respectively.

As to `Cc1c(-c2c(-c3ccc(F)cc3)sc3ncnc(OC(Cc4ccccc4OCc4ccnc(-c5ccccc5COCCO)n4)C(=O)O)c23)ccc(OCCN2CCN(C)CC2)c1Cl` [Example 10, (2R)-2-{[(5Sa)-5-{3-chloro-2-methyl-4-[2-(4-methylpiperazin-1-yl)ethoxy]phenyl}-6-(4-fluorophenyl)thieno[2,3-d]pyrimidin-4-yl]oxy}-3-{2-[(2-{2-[(2-hydroxyethoxy)methyl]phenyl}pyrimidin-4-yl)methoxy]phenyl}propanoic acid], the 50% inhibitory concentration (IC50) (in general, the concentration at which inhibition is half-maximal) was found to be 1.09e-08 M on Mcl-1 protein and 2.79 nM in the assay on H929 cells (setting [1]).

Turning to `Cc1c(-c2c(-c3ccc(F)cc3)sc3ncnc(OC(Cc4ccccc4OCc4ccnc(-c5ccccc5COCC5COC(C)(C)O5)n4)C(=O)O)c23)ccc(OCCN2CCN(C)CC2)c1Cl` [Example 11, (2R)-2-{[(5Sa)-5-{3-chloro-2-methyl-4-[2-(4-methylpiperazin-1-yl)ethoxy]phenyl}-6-(4-fluorophenyl)thieno[2,3-d]pyrimidin-4-yl]oxy}-3-(2-{[2-(2-{[(2,2-dimethyl-1,3-dioxolan-4-yl)methoxy]methyl}phenyl)pyrimidin-4-yl]methoxy}phenyl)propanoic acid], the IC50 amounted to 4.05e-09 M on Mcl-1 protein and 1.99 nM in the assay on H929 cells (setting [1]).

As for `Cc1c(-c2c(-c3ccc(F)cc3)sc3ncnc(OC(Cc4ccccc4OCc4ccnc(-c5cccc(COCCO)c5)n4)C(=O)O)c23)ccc(OCCN2CCN(C)CC2)c1Cl` [Example 12, (2R)-2-{[(5Sa)-5-{3-chloro-2-methyl-4-[2-(4-methylpiperazin-1-yl(ethoxy]phenyl}-6-(4-fluorophenyl)thieno[2,3-d]pyrimidin-4-yl]oxy}-3-{2-[(2-{3-[(2-hydroxyethoxy)methyl]phenyl}pyrimidin-4-yl)methoxy]phenyl}propanoic acid], the IC50 is 4.25e-09 M at Mcl-1 protein and 3.82 nM with H929 cells (setting [1]).

For the compound `COCC(COC)Oc1cccc(-c2nccc(COc3ccccc3CC(Oc3ncnc4sc(-c5ccc(F)cc5)c(-c5ccc(OCCN6CCN(C)CC6)c(Cl)c5C)c34)C(=O)O)n2)c1` [Example 13, (2R)-2-{[(5Sa)-5-{3-chloro-2-methyl-4-[2-(4-methylpiperazin-1-yl)ethoxy]phenyl}-6-(4fluorophenyl)thieno[2,3-d]pyrimidin-4-yl]oxy}-3-{2-[(2-{3-[(1,3-dimethoxypropan-2-yl)oxy]phenyl}pyrimidin-4-yl)methoxy]phenyl}propanoic acid], the IC50 on Mcl-1 protein amounted to 5.1e-09 M; with H929 cells (setting [1]), 3.59 nM.

As to `COCC(COC)Oc1ccc(-c2nccc(COc3ccccc3CC(Oc3ncnc4sc(-c5ccc(F)cc5)c(-c5ccc(OCCN6CCN(C)CC6)c(Cl)c5C)c34)C(=O)O)n2)cc1` [Example 14, (2R)-2-{[(5Sa)-5-{3-chloro-2-methyl-4-[2-(4-methylpiperazin-1-yl)ethoxy]phenyl}-6-(4-fluorophenyl)thieno[2,3-d]pyrimidin-4-yl]oxy}-3-{(2-[(2-{4-[(1,3-dimethoxypropan-2-yl)oxy]phenyl}pyrimidin-4-yl)methoxy]phenyl}propanoic acid], the IC50 on Mcl-1 protein was 6.15e-09 M; in the assay with H929 cells (setting [1]), 3.37 nM.

Turning to `Cc1c(-c2c(-c3ccc(F)cc3)sc3ncnc(OC(Cc4ccccc4OCc4ccnc(-c5ccc(OCC(O)CO)cc5)n4)C(=O)O)c23)ccc(OCCN2CCN(C)CC2)c1Cl` [Example 15, (2R)-2-{[(5Sa)-5-{3-chloro-2-methyl-4-[2-(4-methylpiperazin-1-yl)ethoxy]phenyl}-6-(4-fluorophehenyl)thieno[2,3-d]pyrimidin-4-yl]oxy}-3-[2-({2-[4-(2,3-dihydroxypropoxy)phenyl]pyrimidin-4-yl}methoxy)phenyl]propanoic acid], the IC50 turned out to be 2.75e-09 M at Mcl-1 protein and 3.59 nM with H929 cells (setting [1]).

Turning to `COC1OC(COc2cccc(-c3nccc(COc4ccccc4CC(Oc4ncnc5sc(-c6ccc(F)cc6)c(-c6ccc(OCCN7CCN(C)CC7)c(Cl)c6C)c45)C(=O)O)n3)c2)C(O)C(O)C1O` [Example 16, methyl 6-O-{3-[4-({2-[(2R)-2-carboxy-2-{[(5Sa)-5-{3-chloro-2-methyl-4-[2-(4-methylpiperazin-1-yl)ethoxy]phenyl}-6-(4-flurophenyl)thieno[2,3-d]pyrimidin-4-yl]oxy}ethyl]phenoxy}methyl)pyrimidin-2-yl]phenyl}-α-D-mannopyranoside], the IC50 at Mcl-1 protein turned out to be 7.2e-09 M; in the assay with H929 cells (exposed 48 hours) it was 37.1 nM.

In the case of `COC1OC(COc2cccc(-c3nccc(COc4ccccc4CC(Oc4ncnc5sc(-c6ccc(F)cc6)c(-c6ccc(OCCN7CCN(C)CC7)c(Cl)c6C)c45)C(=O)O)n3)c2)C(OC)C(OC)C1OC` [Example 17, methyl 6-O-{3-[4-({2-[(2R)-2-carboxy-2-{[(5Sa)-5-{3-chloro-2-methyl-4-[2-(4methylpiperazin-1-yl)ethoxy]phenyl}-6-(4-fluorophenyl)thieno[2,3-d]pyrimidin-4-yl]oxy}ethyl]phenoxy}methyl)pyrimidin-2-yl]phenyl}-2,3,4-tri-O-methyl-α-D-mannopyranoside], the results for the IC50 at Mcl-1 protein and in the assay with H929 cells (setting [1]) were 4.8e-09 M and 3.03 nM, respectively.

On to `COC1OC(COc2ccc(-c3nccc(COc4ccccc4CC(Oc4ncnc5sc(-c6ccc(F)cc6)c(-c6ccc(OCCN7CCN(C)CC7)c(Cl)c6C)c45)C(=O)O)n3)cc2)C(O)C(O)C1O` [Example 18, methyl 6-O-{4-[4-({2-[(2R)-2-carboxy-2-{[(5Sa)-5-{3-chloro-2-methyl-4-[2-(4-methylpiperazin-1-yl)ethoxy]phenyl}-6-(4-flurophenyl)thieno[2,3-d]pyrimidin-4-yl]oxy}ethyl]phenoxy}methyl)pyrimidin-2-yl]phenyl}-α-D-mannopyranoside], for which the IC50 at Mcl-1 protein is 4.1e-09 M; in the assay on H929 cells (exposed 48 hours) it was 13.9 nM.

Consider `COC1OC(COc2ccc(-c3nccc(COc4ccccc4CC(Oc4ncnc5sc(-c6ccc(F)cc6)c(-c6ccc(OCCN7CCN(C)CC7)c(Cl)c6C)c45)C(=O)O)n3)cc2)C(OC)C(OC)C1OC` [Example 19, methyl 6-O-{4-[4-({2-[(2R)-2-carboxy-2-{[(5Sa)-5-{3-chloro-2-methyl-4-[2-(4-methylpiperazin-1-yl)ethoxy]phenyl}-6-(4-fluorophenyl)thieno[2,3-d]pyrimidin-4-yl]oxy}ethyl]phenoxy}methyl)pyrimidin-2-yl]phenyl}-2,3,4-tri-O-methyl-α-D-mannopyranoside], for which the IC50 stood at 4.95e-09 M at Mcl-1 protein and 2.47 nM in the assay with H929 cells (setting [1]).

For the compound `Cc1c(-c2c(-c3ccc(F)cc3)sc3ncnc(OC(Cc4ccccc4OCc4ccnc(-c5ccc(OCC6OC(O)C(O)C(O)C6O)cc5)n4)C(=O)O)c23)ccc(OCCN2CCN(C)CC2)c1Cl` [Example 20, 6-O-{4-[4-({2-[(2R)-2-carboxy-2-{[(5Sa)-5-{3-chloro-2-methyl-4-[2-(4-methylpiperazin-1-yl)ethoxy]phenyl}-6-(4-fluorophenyl)thieno[2,3-d]pyrimidin-4-yl]oxy}ethyl]phenoxy}methyl)pyrimidin-2-yl]phenyl}-D-mannopyranose], the values for the IC50 on Mcl-1 protein and in the assay with H929 cells (setting [1]) were 4.35e-09 M and 56.8 nM, respectively.

As to `Cc1c(-c2c(-c3ccc(F)cc3)sc3ncnc(O[C@H](Cc4ccccc4OCc4ccnc(-c5ccccc5OC[C@@H](O)[C@@H](O)[C@H](O)[C@H](O)C(=O)O)n4)C(=O)O)c23)ccc(OCCN2CCN(C)CC2)c1Cl` [Example 21], the IC50 at Mcl-1 protein is 4.85e-09 M; in the assay on H929 cells (exposed 48 hours), > 150 nM.

In the case of `Cc1c(-c2c(-c3ccc(F)cc3)sc3ncnc(OC(Cc4ccccc4OCc4ccnc(-c5ccc(COC6(C)OC7OC(CO)C(O)C(O)C7O6)cc5)n4)C(=O)O)c23)ccc(OCCN2CCN(C)CC2)c1Cl` [Example 22, 1,2-O-[(1R)-1-({4-[4-({2-[(2R)-2-carboxy-2-{[(5Sa)-5-{3-chloro-2-methyl-4-[2-(4-methylpiperazin-1-yl)ethoxy]phenyl}-6-(4-fluorophenyl)thieno[2,3-d]pyrimidin-4-yl]oxy}ethyl]phenoxy}methyl)pyrimidin-2-yl]benzyl}oxy)ethylidene]-β-D-mannopyranose], the IC50 amounted to 5.5e-09 M at Mcl-1 protein and 5.97 nM in the assay on H929 cells (setting [1]).

The record behind these values is patent US10322131B2, “Hydroxyacid derivatives, a process for their preparation and pharmaceutical compositions containing them” (LES LABORATOIRES SERVIER, priority 2015, dated 2019).
